According to patent US4265906A, “Low mammalian toxic and/or low fish toxic insecticides and/or acaricides” (priority 1978, dated 1981):
In brackets after ≈: the same amount, converted by molar mass. Read-outs that look alike come from different tables or passages of the source.

Key:
[1] = Fish toxicity test, median tolerance limit 48 hours (Test Example 1); type: in vivo, Oryzias latipes (killifish); settings: in vivo; Oryzias latipes, 48 hours; read-out: Fish toxicity TLm48 (a)
Protocol: (§1) Ten member group of Oryzias latipes (0.2-0.3 g/fish) was released in a 10-liter glass vessel containing 10 liters of a test preparation which was dissolved or suspended in "Tween 80" and diluted successively with dechlorinated tap water. After 48 hours, the dead and alive were counted to determine median tolerance limit (48 hours) [TLm48 (ppm)] value.

[2] = test system: R-type Nephotettix cincticeps; assay: Insecticidal activity test, activity to Nephotettix cincticeps (Test Example 1); type: in vivo
Protocol: 2. Insecticidal activity test.
Test emulsion preparations were prepared in the same manner as in Formulation Example 1.
Activity to Nephotettix cinciticips
The test insect was resistant to carbamates (hereinafter referred to as R-type). The active ingredient content of test preparation was varied in 4 levels within the range of 500 to 1 ppm. The test preparation was sprayed over 180-ml plastic cups grown with rice plant one-month old from sowing and placed on a turn table, the application rate having been 15 cc/2 cups. After air drying, the plant was covered with a wire-screen cage. A group of 15 female adults of R-type Nephotettix cincticeps was released in each cage and kept at 26° C. in an artificial climate condition. After 24 hours, the dead and alive were observed. The median lethal concentration [LC50 (ppm)] was calculated from the mortality determined by 3-repetition test.

[3] = test system: Oryzias latipes / Nephotettix cincticeps; assay: Fish safety coefficient calculated from fish toxicity and insecticidal activity (Test Example 1); settings: for Safety coefficient to fishes (a)/(b): TLm48 (Oryzias latipes) divided by concentration in water at LC50 for N. cincticeps
Protocol: In order to make more clear the low fish toxicity and the high activity to target insects, which are charcteristic of the compounds of this invention, a fish safety coefficient was calculated from the test results of fish toxicity and insecticidal activity by the following equation and shown in Table 2. [formula]
In the case of N. cincticeps, calculation was based on a hyothetical concentration of the test compound in water obtained by assuming that a test preparation of the active ingredient content corresponding to LC50 (ppm) was sprayed over a submerged paddy field, 5 cm in depth of water, at a rate of 100 liters per 10 ares and total active ingredient was absorbed by the water.
For example, in the case of compound (1) of this invention, the quantity of water per 10 ares of the submerged paddy field, 5 cm in depth of water, is 50 tons. If a preparation of the active ingredient content equivalent to LC50 (ppm) of the compound (1) is sprayed at a rate of 100 liters per 10 ares, the concentration of the compound (1) in the water is 0.007 ppm. The fish toxicity [TLm48 ] of the compound (1) is 6.0 ppm. The fish safety coefficient (857.1) is obtained by dividing 6.0 by 0.007.

[4] = test system: R-type Nephotettix cincticeps; assay: Mortality by isomer mixtures on rice plant (Test Example 2); type: in vivo; settings: 10 ppm active ingredient, 24 hours
Source text: The present compound (1) and (2) were mixed in a predetermined proportion, formulated into an emulsifiable concentrate according to Formulation Example 1 and diluted with water so that the amount of active ingredient was 10 ppm.
The test preparation was sprayed over rice plant in tillering stage planted in a 1/10,000 are Wagner pot, at a rate of 15 cc per pot. After airdrying, the plant was covered with a wire-screen cage into which were released 15 female adults of R-type Nephotettix cincticeps. The pot was kept at 26° C. in an artificial climate condition. After 24 hours, the dead and alive were observed and the mortality was obtained by 3-repetition test.

[5] = Oral toxicity test (Test Example 10); settings: in vivo, male mouse, corn oil
Protocol: The present compound (1) was dissolved or suspended in a corn oil, and the resulting solution was orally administered to a male mouse (18 to 22 g) at a rate of 0.2 ml/10 g body weight. After 24 hours, the mortality was examined to obtain the median lethal dose (LD50 mg/kg).

[6] = Toxicity to carps (Test Example 12); type: in vivo; settings: carp, dechlorinated tap water, read-out: TLm48
Protocol: (§2) The dust of the present compound (1) prepared in Formulation Example 2 was diluted with dechlorinated tap water to a predetermined concentration of active ingredient. Ten liters of the test solution was placed in a 10-liter glass vessel, and 10 killifishes (Oryzias latipes) were liberated therein. After 48 hours, the dead and alive were examined, and TLm48 (ppm) was calculated from the concentration of active ingredient.
Toxicity to carps was tested according to the test method for toxicity to fishes described in Test Example 11, and TLm48 (ppm) values after 48 hours were obtained.

[7] = test system: green rice leafhopper (Nephotettix cincticeps); assay: Residual effect test (Test Example 9); type: in vivo; settings: 400 ppm, 24 hours
Protocol: The emulsifiable concentrate of the present compound (1) prepared in Formulation Example 1 was diluted with water so that the concentration of active ingredient was 400 ppm. Thereafter, 20 cc of the dilute solution was sprayed on rice plants grown in a 1/10,000 are Wagner's pot. The rice plants were air-dried and covered with a wire-screen cage, and 15 female adults of green rice leafhopper (Nephotettix cincticeps) were liberated therein. After 24 hours, the dead and alive were examined to obtain mortality. In order to examine the residual effect, the pot was then left as it was for 7 days, and the test insects were liberated in the same manner as above. After 24 hours, the mortality was examined. The experiment was carried out in a greenhouse and the number of repetitions was three.

[8] = Fish toxicity of dust, killifishes (Test Example 11); type: in vivo; settings: dechlorinated tap water, dust of Formulation Example 2, Oryzias latipes, read-out: TLm48
Protocol: as §2

[9] = test system: green rice leafhopper (Nephotettix cincticeps); assay: Model paddy field box test, green rice leafhopper (Test Example 13); type: in vivo; settings: wettable powder, 100 ppm, 100 liter/10 are, after 48 hours
Protocol: (§3) The wettable powder of the present compound (1) prepared in Formulation Example 3 was diluted with water so that the concentration of active ingredient was 100 ppm. Soil was placed in a plastic box [5m×5m×2m (deep)] to a level of 50 cm from the bottom, and rice plants about 50 cm high were transplanted at intervals of 50 cm. Water was then placed in the bos so that water depth was 5 cm, and 20 killifishes (Oryzias latipes) were liberated therein. Thereafter, the above dilute solution was sprayed on the box at a rate of 100 liter/10 are. The solution fell on the rice plants as well as on the water surface.
(§4) One hour after treatment, 100 female adults of green rice leafhopper (Nephotettix cincticeps) were liberated in the box which was immediately covered with a net.

[10] = test system: WHO strain housefly female adults (Musca domestica); assay: Topical application to housefly (Test Example 5); type: in vivo; settings: 24 hours
Protocol: The present compound (1) was diluted with acetone to four different concentrations.
The acetone dilute solution was topically applied to the ventral thorax of WHO strain housefly female adults (Musca domestica), at a rate of 0.5 μl/adult by means of a microsyringe.
The adults were then liberated in a plastic cup of 12 cm in diameter and given a 1% sugar water. After 24 hours, the dead and alive were examined. The median lethal does (LD50 μg/adult) was obtained from the mortality of 50 adults per group.

[11] = test system: third instar larvae of rice stem borer (Chilo suppressalis); assay: Rice seedling dipping test, rice stem borer (Test Example 6); type: in vivo; settings: 240 h, 10 days, read-out: larvae killed
Protocol: The emulsifiable concentrate of the present compound (1) prepared in Formulation Example 1 was diluted with water so that the concentration of active ingredient was 500 ppm. Five rice seedlings which had elapsed 10 days after sowing were dipped in the dilute solution and air-dried. The rice seedlings and 10 third instar larvae of rice stem borer (Chilo suppressalis) were placed in a plastic cup (diameter 5.5 cm, height 3.5 cm) which was then placed in an artificial climate chamber kept at 26° C.

Oryzias latipes = assay: Fish toxicity test, median tolerance limit 48 hours (Test Example 1); type: in vivo, Oryzias latipes (killifish); settings: killifish, in words
Protocol: as §1

Laodelphax striatellus = assay: Insecticidal activity, Laodelphax striatellus (Test Example 4); type: in vivo; settings: Laodelphax striatellus female adults, 24 hours, 26° C.
Protocol: The emulsion preparation containing the compound (1) of this invention, described in Formulation Example 1, was diluted with water. The active ingredient content of the test prepartion was varied in 4 levels within the range of 150 to 10 ppm. The test preparation was sprayed over 180 ml plastic cups grown with rice plant and placed on a turn table the application rate having been 15 cc/2 cups. After air drying, the plant was covered with a wire-screen cage. A group of 15 female adults of Laodelphax striatellus was released in each cage and kept at 26° C. in an artificial climate condition. After 24 hours, the dead and alive were observed. The median lethal concentration [LC50 (ppm)] was calculated from the mortality determined by 3-repetition test.

[12] = test system: carmine mites (Tetranychus cinnabarinus); assay: Acaricidal test on rice plants, carmine mites (Test Example 8); type: in vivo; settings: 500 ppm, after 10 days
Protocol: The emulsifiable concentrate of the present compound (1) prepared in Formulation Example 1 was diluted with water so that the concentration of active ingredient was 500 ppm. The dilute solution was then thoroughly sprayed on rice plants (grown in a 1/10,000 are Wagner's pot) on which carmine mites (Tetranychus cinnabarinus) in all stages were made parasitic.

[13] = test system: full grown larvae of Aedes aegypty (Culex pipiens pallens); assay: Mosquito larvae test (Test Example 7); type: in vivo; settings: 24 hours, read-out: larvae killed
Protocol: The emulsifiable concentrate of the present compound (1) prepared in Preparation example 1 was diluted with distilled water so that the concentration of active ingredient was 0.1 ppm. One hundred milliliters of the dilute solution was placed in a 180-ml plastic cup, and 30 full grown larvae of Aedes aegypty (Culex pipiens pallens) were liberated therein. After 24 hours, 100% of the larvae could be killed.

[14] = test system: killifishes (Oryzias latipes); assay: Model paddy field box test, killifishes (Test Example 13); type: in vivo; settings: wettable powder, 100 ppm, 100 liter/10 are, water depth 5 cm, after 48 hours
Protocol: as §3, §4

[15] = R-type (carbamate-resistant) Nephotettix cincticeps female adults, 24 hours, 26° C., read-out: LC50

Row | SMILES | LC50 at 48 h [1] | LC50 [2, 15] | Safety coefficient to fishes (a)/(b) [3] | LD50 at 24 h [5] | other results
1 | CC1(C)C(C=C(Cl)Cl)C1C(=O)OC(C#N)c1cccc(Oc2ccc(Br)cc2)c1 (racemic) [(A), m-(p-bromophenoxy)-α-cyanobenzyl dl-cis, trans-2,2-dimethyl-3-(2,2-dichlorovinyl)cyclopropanecarboxylate] | 0.9 µg/mL (≈ 1.82 µM) | 8 µg/mL (≈ 16.2 µM) | 56.3 |  | 
2 | CC(C)=CC1C(C(=O)OCc2cccc(Oc3ccccc3)c2)C1(C)C (racemic) [(B), m-phenoxybenzyl dl-cis,trans chrysanthemate] |  |  |  |  | mortality at 10 ppm [4]: 10%
3 | CC1(C)C(C=C(Cl)Cl)C1C(=O)OCc1cccc(Oc2ccccc2)c1 (racemic) [(C), m-phenoxybenzyl dl-cis,trans-2,2-dimethyl-3-(2,2-dichlorovinyl)cyclopropanecarboxylate] | 0.027 µg/mL (≈ 0.069 µM) | 18 µg/mL (≈ 46 µM) | 0.8 | 650 mg/kg | 
4 | CC1(C)C(C=C(Cl)Cl)C1C(=O)OC(C#N)c1cccc(Oc2ccc(F)cc2)c1 (racemic) [(E), m-(p-fluorophenoxy)-α-cyanobenzyl dl-cis,trans-2,2-dimethyl-3-(2,2-dichlorovinyl)cyclopropanecarboxylate] | 0.003 µg/mL (≈ 0.00691 µM) | 5 µg/mL (≈ 11.5 µM) | 0.3 | 300 mg/kg | 
5 | CC1(C)C(C=C(Cl)Cl)C1C(=O)OC(C#N)c1cccc(Oc2ccccc2)c1 (racemic) [Reference compound (D), m-phenoxy-α-cyanobenzyl dl-cis,trans-2,2-dimethyl-3-(2,2-dichlorovinyl)-cyclopropanecarboxylate] | 0.026 µg/mL (≈ 0.0625 µM) | 5 µg/mL (≈ 12 µM) | 2.6 | 112 mg/kg | LC50 at 48 h [6]: ≤ 0.01 µg/mL
6 | CC1(C)[C@H](C=C(Cl)Cl)[C@H]1C(=O)OC(C#N)c1cccc(Oc2ccc(Br)cc2)c1 (relative stereo) [Compound (1), m-(p-bromophenoxy)-α-cyanobenzyl dl-trans-2,2-dimethyl-3-(2,2-dichlorovinyl)cyclopropanecarboxylate] | 6 µg/mL (≈ 12.1 µM) | 3.5 µg/mL (≈ 7.07 µM) | 857.1 | > 2000 mg/kg | Mortality (%), effect immediately after treatment [7]: 100%; Mortality (%), effect 7 days after treatment ([7]; insects liberated 7 days after treatment): 100%; LC50 at 48 h [6]: > 10 µg/mL; LC50 at 48 h [8]: > 10 µg/mL; green rice leafhoppers found [9]: no green rice leafhoppers were found; LD50 [10]: 0.035 μg/adult; mortality at 500 ppm [11]: 100%; toxicity to killifish compared with reference compounds (Oryzias latipes): lower in toxicity to killifish than the reference compounds (A), (C), (D) and (E); LC50 (Laodelphax striatellus): 70 µg/mL (≈ 141 µM); degree of damage by the carmine mites [12]: the spreading of damage could be prevented; insecticidal activity compared with reference compounds ([2]; Nephotettix cincticeps, in words): higher in insecticidal activity than the reference compounds (A), (C) and (F); mortality at 0.1 ppm [13]: 100%; safety coefficient to fishes compared with reference compounds ([3]; in words): shows a very high value as compared with that of the reference compounds; survival of killifishes [14]: all of the killifishes were alive
7 | CNC(=O)Oc1ccc(C)c(C)c1 [(F)] | 11.9 µg/mL (≈ 66.4 µM) |  | 17.0 | 60 mg/kg | LC50 ([2]; Nephotettix cincticeps, 24 h): 350 µg/mL (≈ 1950 µM)
